From PMC10102027, “Helquat dyes targeting G-quadruplexes as a new class of anti-HIV-1 inhibitors” (Scientific Reports, 2023)

What was measured:
Assay type in all cases: cell-based
[1] = tested on: HIV-1; assay: Replication assay (RT activity in supernatant); conditions: 10 µM, compound added 1 h after infection of MT-4 cells, RT activity 5 days after infection
Procedure: (§1) To address virion binding and entry in a competitive setting, we performed an adsorption assay where test compounds and virions were added to MT-4 cells simultaneously and were washed out after 2 h of incubation. In parallel, we performed a replication assay where MT-4 cells were infected with HIV-1 and the tested compounds were added 1 h later. In both cases, the infection was evaluated by measuring reverse transcriptase activity in a cell-free supernatant 5 days after the infection (Fig. 3). As controls, PBS (phosphate-buffered saline) and inhibitors of different HIV-1 life-cycle steps were used: AMD (AMD3100), an inhibitor of gp120 attachment to CXCR4 receptors of the target cell, thus preventing HIV-1 adsorption and entry; AZT (azidothymidine), an inhibitor of reverse transcriptase; and RAL (raltegravir), an integrase inhibitor.
(§2) MT-4 cells were seeded in 80 µl of the Roswell Park Memorial Institute (RPMI) medium in the amount of 2 × 10^5 cells per well of a 96-well plate, and 10 µl of the virus stock were immediately added with the final multiplicity of infection (MOI) of 0.05. For a replication assay, the infected cells were incubated at 37 °C for 1 h before the addition of compounds being tested (10 µM final concentration) and subsequently cultivated at 37 °C for another 5 days. For an adsorption test, by contrast, the compounds (10 µM final concentration) were added simultaneously with the virus, and after 2 h of incubation, the cells were washed three times with PBS to remove the compounds and unbound virions; after the addition of 100 µl of the RPMI medium, the cells were cultivated at 37 °C for 5 days. Five days post-infection, aliquots of virus-containing cell-free supernatants were harvested and analysed by reverse transcriptase (RT) assay (described in the Supplementary Information). The experiments were performed as biological replicates where the sample size for each condition was n = 3.
(§3) RT assay. The reverse transcriptase (RT) activity in a cell-free supernatant was assessed by an α-32P RT assay. Briefly, the RT activity in the culture medium, which corresponded to the amount of HIV-1, was used to produce a DNA copy of an RNA template by extending a complementary oligo dT DNA primer with radiolabelled nucleotides. A reaction mixture containing 50 mM Tris-HCl pH 7.8, 75 mM KCl, 2 mM DTT, 5 mM MgCl2 and 0.5% NP-40 (all Sigma-Aldrich), 5 µg per ml of poly (rA)-poly (dT) (The Midlan Certified Reagent Company) with 1 µl 10-mCi/ml [α-32P]dTTP (American Radiolabeled Chemicals) per ml, and the tested sample was incubated at 37°C for two hours, after which 10 µl were spotted on DEAE blotting paper (PerkinElmer) and air-dried. After five washes with SSC buffer (0.15 M NaCl, 0.015 M sodium citrate) and three additional washes with 85% ethanol, the blotting paper was exposed to Phosphoscreen overnight, which was scanned on a Typhoon 9410 Phosphorimager instrument (GE Healthcare). The intensity of the dots was analysed by the ImageQuant software (GE Healthcare).

[2] = in vitro; conditions: human
Description: (§4) Based on a facile [2 + 2 + 2]‐cycloisomerization strategy, a robust three‐step synthetic entry into a novel family of helical extended diquats (helquats) was developed. After a straightforward Knoevenagel condensation of the respective helquat parent with different aldehydes (Fig. 2A), more than 500 helquat-based compounds were synthesized and screened for anti-HIV-1 activity in an assay based on the inhibition of the virus-induced cytopathic effect in MT-4 cells, evaluated after 5 days post-infection by an XTT assay. In parallel with the screening, the XTT assay was also used to determine the cytotoxicity of all compounds (Fig. 2B; for more information on the synthesis and characterization of the compounds, see the Supplementary Information). […]
(§5) XTT screening. MT-4 cells were seeded in 80 µl of the RPMI without Phenol Red in the amount of 3x10^4 cells per well of a 96-well plate. 10 µl of tested compounds (500 µM at 5% DMSO) or controls (5% DMSO at PBS, AZT 1mM, SQV 100 µM) were added to the cells; after one-hour incubation at 37 °C, HIV-1 (NL4-3 strain) was added with MOI = 0.05 and the infected cells were cultivated for five days.
(§6) The viability of the cells was measured by the XTT cell viability and proliferation assay. Briefly, 50 µl of the XTT solution with the addition of PMS (both VWR) was added to the cultivation media and incubated in a humidified incubator maintained at 37 °C with 5% CO2 for four hours, after which absorbance at 560 nm was measured on a VICTOR plate reader (PerkinElmer).
The cytotoxicity of the tested compounds was evaluated separately without virus addition and analysed by the same assay.
(§7) For compounds selected as hits in the initial screening, the effective concentration that inhibits 50% of the viral activity (EC50) and the cytotoxic concentration that reduces the MT -4 cell viability by 50% (CC50) were determined. Viral activity was evaluated after five days as an HIV-1-induced cytopathic effect quantified by the XTT assay. Selected hits were tested at two-fold serial dilutions from 50 µM concentration, and the drug concentrations required to reduce the viral cytopathic effect by 50% (EC 50) as well as the drug concentrations that reduced MT-4 cell viability by 50% (CC50) were calculated by nonlinear regression using GraphPad Prism v.8.0.0 (GraphPad Software).

[3] = tested on: HIV-1 (NL4-3 strain); assay: CPE-based antiviral assay in HIV-1-infected MT-4 cells (XTT); conditions: Human immunodeficiency virus 1, NL43, MT4, 120 h, cytopathic effect-based assay, MT-4 cells infected by HIV-1 (NL4-3 strain), 5 days post-infection
Description: as §4, §5
as §6, with “(PerkinElmer). […]” for “(PerkinElmer).”
as §7

[4] = tested on: HIV-1; assay: Adsorption assay (RT activity in supernatant); conditions: 10 µM, compound and virions added to MT-4 cells simultaneously, washed out after 2 h, RT activity 5 days after infection
Procedure: as §1, §2, §3

C(=C\c1cc2ccccc2[nH]1)/c1cc[n+]2c(c1)-c1c(ccc3c1-c1cccc[n+]1CCC3)CCC2 [Compound 7]
effect on viral replication [1]: significantly impairing viral replication | CC50 at 5 days [2]: > 50 µM | EC50 [3]: 1.79 µM | effect on virus adsorption [4]: minimal or no effect on virus adsorption

CN1/C(=C/c2cc3[n+](c4ccccc24)CCCc2ccc4c(c2-3)-c2cccc[n+]2CCC4)Sc2ccccc21 [Compound 2]
CC50 at 5 days [2]: 24.4 µM | EC50 [3]: < 1 µM | effect on virus adsorption [4]: inhibited adsorption

Cn1c(/C=C/c2cccc3[n+]2CCc2ccc4c(c2-3)-c2cccc(/C=C/c3cc5ccccc5n3C)[n+]2CC4)cc2ccccc21 [Compound 9]
CC50 at 5 days [2]: > 50 µM | EC50 [3]: 1.96 µM | effect on virus adsorption [4]: inhibited adsorption

Cc1c(C)c2c(c3c1CC[n+]1ccc(/C=C/c4c5ccccc5c(C)c5ccccc45)cc1-3)-c1cc(/C=C/c3c4ccccc4c(C)c4ccccc34)cc[n+]1CC2 [Compound 1]
effect on viral replication [1]: inhibited neither adsorption nor replication, or their effect was weak | CC50 at 5 days [2]: > 50 µM | EC50 [3]: < 1 µM | effect on virus adsorption [4]: inhibited neither adsorption nor replication, or their effect was weak

CN1/C(=C/c2cccc3[n+]2CCCc2ccc4c(c2-3)-c2cccc(/C=C3\Sc5ccccc5N3C)[n+]2CCC4)Sc2ccccc21 [Compound 10]
effect on viral replication [1]: inhibited neither adsorption nor replication, or their effect was weak | CC50 at 5 days [2]: > 50 µM | EC50 [3]: 2.18 µM | effect on virus adsorption [4]: inhibited neither adsorption nor replication, or their effect was weak

Cc1c(C)c2c(c3c1CC[n+]1ccc(/C=C/c4ccc(N(C)C)cc4)cc1-3)-c1cc(/C=C/c3ccc(N(C)C)cc3)cc[n+]1CC2 [Compound 8]
CC50 at 5 days [2]: > 50 µM | EC50 [3]: 1.79 µM | effect on virus adsorption [4]: inhibited adsorption

Cc1c(C)c2c(c3c1CC[n+]1ccc(/C=C/c4c[nH]c5ccc(Br)cc45)cc1-3)-c1cc(/C=C/c3c[nH]c4ccc(Br)cc34)cc[n+]1CC2 [Compound 17]
effect on viral replication [1]: inhibited neither adsorption nor replication, or their effect was weak | CC50 at 5 days [2]: > 50 µM | EC50 [3]: 3.01 µM | effect on virus adsorption [4]: inhibited neither adsorption nor replication, or their effect was weak

COc1ccc(/C=C/c2cc[n+]3c(c2)-c2c(c(C)c(C)c4c2-c2cc(/C=C/c5ccc(OC)cc5OC)cc[n+]2CC4)CC3)c(OC)c1 [Compound 13]
effect on viral replication [1]: inhibited neither adsorption nor replication, or their effect was weak | CC50 at 5 days [2]: > 50 µM | EC50 [3]: 2.69 µM | effect on virus adsorption [4]: inhibited neither adsorption nor replication, or their effect was weak

Cc1c(C)c2c(c3c1CC[n+]1ccc(/C=C/c4ccc5c(c4)CCO5)cc1-3)-c1cc(/C=C/c3ccc4c(c3)CCO4)cc[n+]1CC2 [Compound 5]
effect on viral replication [1]: inhibited neither adsorption nor replication, or their effect was weak | CC50 at 5 days [2]: > 50 µM | EC50 [3]: 1.67 µM | effect on virus adsorption [4]: inhibited neither adsorption nor replication, or their effect was weak

Cc1c(C)c2c(c3c1CC[n+]1ccc(/C=C/c4c[nH]c5ccccc45)cc1-3)-c1cc(/C=C/c3c[nH]c4ccccc34)cc[n+]1CC2 [Compound 18]
effect on viral replication [1]: inhibited neither adsorption nor replication, or their effect was weak | CC50 at 5 days [2]: > 50 µM | EC50 [3]: 3.18 µM | effect on virus adsorption [4]: inhibited neither adsorption nor replication, or their effect was weak

Cc1c(C)c2c(c3c1CC[n+]1ccc(/C=C/c4ccc(-c5ccccc5)s4)cc1-3)-c1cc(/C=C/c3ccc(-c4ccccc4)s3)cc[n+]1CC2 [Compound 11]
CC50 at 5 days [2]: > 50 µM | EC50 [3]: 2.64 µM | effect on virus adsorption [4]: inhibited adsorption

C(=C\c1cccc2[n+]1CCc1ccc3c(c1-2)-c1cccc(/C=C/c2ccc(C(=C(c4ccccc4)c4ccccc4)c4ccccc4)cc2)[n+]1CC3)/c1ccc(C(=C(c2ccccc2)c2ccccc2)c2ccccc2)cc1 [Compound 4]
CC50 at 5 days [2]: > 50 µM | EC50 [3]: 1.51 µM | effect on virus adsorption [4]: inhibited adsorption

COc1ccc(/C=C/c2cc[n+]3c(c2)-c2c(c(C)c(C)c4c2-c2cc(/C=C/c5ccc(OC)c6ccccc56)cc[n+]2CC4)CC3)c2ccccc12 [Compound 19]
effect on viral replication [1]: inhibited neither adsorption nor replication, or their effect was weak | CC50 at 5 days [2]: > 50 µM | EC50 [3]: 3.39 µM | effect on virus adsorption [4]: inhibited neither adsorption nor replication, or their effect was weak
